Assay results taken from patent US8293772B2, “Triazole substituted aminobenzophenone compounds” (Leo Pharma A/S, priority 2004, dated 2012).

Assays:
IL-1β = assay: Inhibition of IL-1β secretion in LPS stimulated peripheral blood mononuclear cells; type: cell-based; conditions: LPS stimulated human PBMC, 18 hours, ELISA; read-out: The median inhibition concentration (IC50, nM) of IL-1β
Experimental: (§1) To study the effect of compounds of the present invention in vitro, the inhibition of IL-1β and TNF-α secretion was determined using the following procedure:
(§2) Cytokine production was measured in the media from lipopolysaccharide (LPS) stimulated peripheral blood mononuclear cells. The mononuclear cells were isolated from human peripheral blood by Lymphoprep® (Nycomed, Norway) fractionation and suspended in RPMI 1640 (growth medium) with foetal calf serum (FCS, 2%), at a concentration of 5×10^5 cells/ml. The cells were incubated in 24-well tissue culture plates in 1 ml aliquots. Test compounds were dissolved in dimethylsulfoxide (DMSO, 10 mM) and were diluted with the medium. Compounds were added to the cells for 30 minutes, then LPS ([…] final concentration) was added. The plates were incubated for 18 hours, and the concentration of IL-1β and TNF-α in the medium was determined by enzyme-linked immunosorbent assays. The median inhibitory concentrations (IC50) of the compounds were calculated.

TNF-α [1] = assay: Inhibition of TNF-α secretion in LPS stimulated peripheral blood mononuclear cells; type: cell-based; conditions: LPS stimulated human PBMC, 18 hours, ELISA; read-out: The median inhibition concentration (IC50, nM) of TNF-α
Experimental: as §1, §2

TNF-α [2] = assay: In vivo screening model of LPS induced TNF-α response in mice; conditions: Mus musculus, po, 1 mg/kg p.o., 1 hour prior to LPS, plasma TNF-α 80-90 minutes after LPS, read-out: In vivo inhibition of LPS induced TNF-α production (in %)
Experimental: In Vivo Screening Model of LPS Induced TNF-α Response in Mice
To study the effect of compounds of the present invention in vivo, an in vivo screening model of LPS induced TNF-α response in mice was set up as follows: Groups of 6 mice (C3H/HeN, female, about 8 weeks (20 g), Bomholtgaard) were dosed with test compounds in suspension vehicle 1 hour prior to LPS administration (LPS from E. coli 055:B5, L-4005, Sigma). At time 0, the mice were dosed ip with 1.0 mg LPS/kg. After anesthetization with Hypnorm/Dormicum, the mice were bled from the periorbital venous plexus 80-90 minutes after LPS administration. The blood samples were sampled in EDTA stabilised tubes and centrifuged at 4000 rpm for 10 minutes at 4° C. The plasma level of TNF-α was analysed by ELISA. Compound 156 of WO 98/32730 was used as reference compound. The plasma level of TNF-α was determined using a sandwich ELISA. Microtiter plates were coated with a monoclonal antibody against mouse TNF-α, washed and blocked with a casein buffer. Samples of mouse TNF-α recombinant standards were added to the wells of the microtiter plates and incubated. All standards were tested in triplicate, all plasma samples in single. After sample and standard incubation, the plates were washed and incubated with biotinylated polyclonal secondary antibody against mouse TNF-α and washed. Enzyme conjugate was added to all wells and incubated. Substrate was added and the enzyme/substrate reaction stopped after 15 minutes at room temperature with 1M H2SO4. The colour development (OD) was measured at 450 nm on an ELISA reader and the background OD at 620 nm was subtracted. […] The results of the tested compounds are indicated as a percentage inhibition compared to an LPS treated control group. Compounds were tested at 1 mg/kg (p.o.). The Mann-Whitney test was used to compare drug treated groups to the LPS treated control group (p<0.05).

| SMILES | IC50 (IL-1β) | IC50 (TNF-α [1]) | inhibition in vivo at 1 mg/kg (TNF-α [2]) |
| --- | --- | --- | --- |
| Cc1ccc(-c2cn(CC(O)CO)nn2)cc1C(=O)c1ccc(Nc2ccc(F)cc2F)cc1Cl (centres unmarked) [Compound 106, [2-Chloro-4-(2,4-difluoro-phenylamino)-phenyl]-{5-[1-(2,3-dihydroxy-propyl)-1H-[1,2,3]triazol-4-yl]-2-methyl-phenyl}-methanone] | 0.7 nM | 0.5 nM | 98% |
| Cc1ccc(-c2cn(CC3COC(C)(C)O3)nn2)cc1C(=O)c1ccc(Nc2ccc(F)cc2F)cc1Cl (centres unmarked) [Compound 105, [2-Chloro-4-(2,4-difluoro-phenylamino)-phenyl]-{5-[1-(2,2-dimethyl-[1,3]dioxolan-4-ylmethyl)-1H-[1,2,3]triazol-4-yl]-2-methyl-phenyl}-methanone] |  | 1.4 nM |  |
| Cc1ccc(-n2cc(CCN3CCN(C)CC3)nn2)cc1C(=O)c1ccc(Nc2ccc(F)cc2F)cc1Cl [Compound 139, [2-Chloro-4-(2,4-difluoro-phenylamino)-phenyl]-(2-methyl-5-{4-[2-(4-methyl-piperazin-1-yl)-ethyl]-[1,2,3]triazol-1-yl}-phenyl)-methanone] | 1.6 nM | 0.5 nM |  |
| Cc1ccc(-n2cc(C(C)(C)N)nn2)cc1C(=O)c1ccc(Nc2ccc(F)cc2F)cc1Cl [Compound 131, {5-[4-(1-Amino-1-methyl-ethyl)-[1,2,3]triazol-1-yl]-2-methyl-phenyl}-[2-chloro-4-(2,4-difluoro-phenylamino)-phenyl]-methanone] | 2.5 nM | 1.8 nM | 80% |
| Cc1cc(Cl)ccc1Nc1ccc(C(=O)c2cc(-n3cc(CCO)nn3)ccc2C)c(Cl)c1 [Compound 145, [2-Chloro-4-(4-chloro-2-methyl-phenylamino)-phenyl]-{5-[4-(2-hydroxy-ethyl)-[1,2,3]triazol-1-yl]-2-methyl-phenyl}-methanone] | 5 nM | 2 nM |  |
| CCNC(=O)Cn1cc(-c2ccc(C)c(C(=O)c3ccc(Nc4ccc(F)cc4F)cc3Cl)c2)nn1 [Compound 112, 2-(4-{3-[2-Chloro-4-(2,4-difluoro-phenylamino)-benzoyl]-4-methyl-phenyl}-[1,2,3]triazol-1-yl)-N-ethyl-acetamide] | 5 nM | 0.3 nM | 49% |
| CC(=O)c1cn(-c2ccc(C)c(C(=O)c3ccc(Nc4ccc(F)cc4F)cc3Cl)c2)nn1 [Compound 130, 1-(1-{3-[2-Chloro-4-(2,4-difluoro-phenylamino)-benzoyl]-4-methyl-phenyl}-1H-[1,2,3]triazol-4-yl)-ethanone] | 1.3 nM | 0.6 nM |  |
| CCCNCCc1cn(-c2ccc(C)c(C(=O)c3ccc(Nc4ccc(F)cc4F)cc3Cl)c2)nn1 [Compound 142, [2-Chloro-4-(2,4-difluoro-phenylamino)-phenyl]-{2-methyl-5-[4-(2-propylamino-ethyl)-[1,2,3]triazol-1-yl]-phenyl}-methanone] | 1 nM | 0.8 nM |  |
| Cc1ccc(-c2cn(CC(N)=O)nn2)cc1C(=O)c1ccc(Nc2ccc(F)cc2F)cc1Cl [Compound 107, 2-(4-{3-[2-Chloro-4-(2,4-difluoro-phenylamino)-benzoyl]-4-methyl-phenyl}-[1,2,3]triazol-1-yl)-acetamide] | 0.8 nM | 0.5 nM | 91% |
| COc1ccc(-c2cn(CCO)nn2)cc1C(=O)c1ccc(Nc2ccc(F)cc2F)cc1Cl [Compound 120, [2-Chloro-4-(2,4-difluoro-phenylamino)-phenyl]-{5-[1-(2-hydroxy-ethyl)-1H-[1,2,3]triazol-4-yl]-2-methoxy-phenyl}-methanone] | 5 nM | 0.8 nM |  |
| Cc1ccccc1Nc1ccc(C(=O)c2cc(-n3cc(CCO)nn3)ccc2C)c(Cl)c1 [Compound 117, (2-Chloro-4-o-tolylamino-phenyl)-{5-[4-(2-hydroxy-ethyl)-[1,2,3]triazol-1-yl]-2-methyl-phenyl}-methanone] | 1.6 nM | 1.1 nM |  |
| Cc1cc(F)ccc1Nc1ccc(C(=O)c2cc(-n3cc(CCO)nn3)ccc2C)c(Cl)c1 [Compound 143, [2-Chloro-4-(4-fluoro-2-methyl-phenylamino)-phenyl]-{5-[4-(2-hydroxy-ethyl)-[1,2,3]triazol-1-yl]-2-methyl-phenyl}-methanone] | 4 nM | 1 nM |  |
| Cc1ccc(-c2cn(CC(=O)NC(C)(C)CO)nn2)cc1C(=O)c1ccc(Nc2ccc(F)cc2F)cc1Cl [Compound 113, 2-(4-{3-[2-Chloro-4-(2,4-difluoro-phenylamino)-benzoyl]-4-methyl-phenyl}-[1,2,3]triazol-1-yl)-N-(2-hydroxy-1,1-dimethyl-ethyl)-acetamide] | 6.3 nM | 0.6 nM |  |
| Cc1ccc(-n2cc(CNC(N)=O)nn2)cc1C(=O)c1ccc(Nc2ccc(F)cc2F)cc1Cl [Compound 137, (1-{3-[2-Chloro-4-(2,4-difluoro-phenylamino)-benzoyl]-4-methyl-phenyl}-1H-[1,2,3]triazol-4-ylmethyl)-urea] | 1 nM | 0.3 nM |  |
| Cc1ccc(-n2cc(CCO)nn2)cc1C(=O)c1ccc(Nc2ccc(F)cc2Cl)cc1Cl [Compound 118, [2-Chloro-4-(2-chloro-4-fluoro-phenylamino)-phenyl]-{5-[4-(2-hydroxy-ethyl)-[1,2,3]triazol-1-yl]-2-methyl-phenyl}-methanone] | 1.3 nM | 0.9 nM |  |
| CCOC(=O)Cn1cc(-c2ccc(C)c(C(=O)c3ccc(Nc4ccc(F)cc4F)cc3Cl)c2)nn1 [Compound 110, (4-{3-[2-Chloro-4-(2,4-difluoro-phenylamino)-benzoyl]-4-methyl-phenyl}-[1,2,3]triazol-1-yl)-acetic acid ethyl ester] | 6.3 nM | 3.6 nM |  |
| Cc1ccc(-n2cc(C(C)(C)O)nn2)cc1C(=O)c1ccc(Nc2ccc(F)cc2F)cc1Cl [Compound 129, [2-Chloro-4-(2,4-difluoro-phenylamino)-phenyl]-{5-[4-(1-hydroxy-1-methyl-ethyl)-[1,2,3]triazol-1-yl]-2-methyl-phenyl}-methanone] |  | 1.4 nM | 83% |
| Cc1ccc(-n2cc(CCO)nn2)cc1C(=O)c1ccc(Nc2ccc(F)cc2F)cc1Cl [Compound 128, [2-Chloro-4-(2,4-difluoro-phenylamino)-phenyl]-{5-[4-(2-hydroxy-ethyl)-[1,2,3]triazol-1-yl]-2-methyl-phenyl}-methanone] |  | 1 nM | 95% |
| CCN(CC)CCc1cn(-c2ccc(C)c(C(=O)c3ccc(Nc4ccc(F)cc4F)cc3Cl)c2)nn1 [Compound 140, [2-Chloro-4-(2,4-difluoro-phenylamino)-phenyl]-{5-[4-(2-diethylamino-ethyl)-[1,2,3]triazol-1-yl]-2-methyl-phenyl}-methanone] | 2 nM | 0.8 nM |  |
| Cc1ccc(-n2cc(CCN3CCOCC3)nn2)cc1C(=O)c1ccc(Nc2ccc(F)cc2F)cc1Cl [Compound 138, [2-Chloro-4-(2,4-difluoro-phenylamino)-phenyl]-{2-methyl-5-[4-(2-morpholin-4-yl-ethyl)-[1,2,3]triazol-1-yl]-phenyl}-methanone] | 3.2 nM | 2 nM |  |
| Cc1ccc(-n2cc(CCNCCO)nn2)cc1C(=O)c1ccc(Nc2ccc(F)cc2F)cc1Cl [Compound 141, [2-Chloro-4-(2,4-difluoro-phenylamino)-phenyl]-(5-{4-[2-(2-hydroxy-ethylamino)-ethyl]-[1,2,3]triazol-1-yl}-2-methyl-phenyl)-methanone] | 0.6 nM | 0.6 nM |  |
| Cc1ccc(-n2cc(CCN)nn2)cc1C(=O)c1ccc(Nc2ccc(F)cc2F)cc1Cl [Compound 136, {5-[4-(2-Amino-ethyl)-[1,2,3]triazol-1-yl]-2-methyl-phenyl}-[2-chloro-4-(2,4-difluoro-phenylamino)-phenyl]-methanone] | 1.6 nM | 1.3 nM |  |
